# Data published in US12442035B2, “Compositions and methods for detecting antibiotic responsive mRNA expression signatures and uses thereof” (THE BROAD INSTITUTE, INC., priority 2018, dated 2025).
# How the values were obtained:
# [1] = system: K. pneumoniae clinical isolates; experiment: Standard broth microdilution MIC; assay type: cell-based, Klebsiella pneumoniae
# Description: (§3) All strains in this study (Table 7) were obtained from clinical or reference microbiological laboratories, including both local hospitals and MDRO strain collections from the Centers for Disease Control's Antibiotic Resistance Isolate Bank (see e.g., World Wide Web at (www).cdc.gov/ARIsolateBank/) and the New York State Department of Health.
# [2] = system: E. coli clinical isolates; experiment: RNA-Seq transcriptional response to antibiotic exposure, GO term enrichment; assay type: cell-based, Escherichia coli; conditions: CLSI breakpoint concentration, 0, 10, 30, 60 minutes
# [3] = system: E. coli clinical isolates; experiment: Standard broth microdilution MIC; assay type: cell-based, Escherichia coli
# Description: as §3
# [4] = system: A. baumannii clinical isolates; experiment: Standard broth microdilution MIC; assay type: cell-based, Acinetobacter baumannii
# Description: as §3
# [5] = system: A. baumannii clinical isolates; experiment: RNA-Seq transcriptional response to antibiotic exposure, GO term enrichment; assay type: cell-based, Acinetobacter baumannii; conditions: CLSI breakpoint concentration, 0, 10, 30, 60 minutes
# Description: (§1) Fisher's combined probability test was used to select only those genes whose expression after antibiotic treatment was statistically distinguishable from its expression at any timepoint in the untreated samples. Gene ontology (GO) terms were assigned using blast2GO (version 1.4.4), with hypergeometric testing for enrichment. For each pathogen-antibiotic pair, the fold-change threshold in DESeq2 used to test statistical significance was increased to select 60-100 antibiotic-responsive transcripts with maximal stringency, a number readily accommodated by the NanoString® assay format. […] As with responsive genes, the fold-change threshold was varied in order to select the top 10-20 control transcripts. […] See Supplemental Methods sections below for further details.
# (§2) After antibiotic treatment as described in the above Materials and Methods section, cells were pelleted, resuspended in 0.5 mL Trizol reagent (ThermoFisher Scientific), transferred to 1.5 mL screw-cap tubes containing 0.25 mL of 0.1 mm diameter Zirconia/Silica beads (BioSpec Products), and lysed mechanically via bead-beating for 3-5 one-minute cycles on a Minibeadbeater-16 (BioSpec) or one 90-second cycle at 10 m/sec on a FastPrep (MP Bio). After addition of 0.1 mL chloroform, each sample tube was mixed thoroughly by inversion, incubated for 3 minutes at room temperature, and centrifuged at 12,000×g for 15 minutes at 4° C. […]
# [6] = system: K. pneumoniae clinical isolates; experiment: as above; assay type: cell-based, Klebsiella pneumoniae; conditions: CLSI breakpoint concentration, 0, 10, 30, 60 minutes
# Description: as §1, §2
substance,measurement,setting,value
gentamicin,gent MIC,[1]; KpGent strain AR0042,32 µg/mL
same,gent MIC,[1]; KpGent strain AR0043,1 µg/mL
same,gent MIC,[1]; KpGent strain AR0076,32 µg/mL
same,gent MIC,[1]; KpGent strain AR0080,2 µg/mL
same,gent MIC,[1]; KpGent strain ATCC 700721,>32 µg/mL
same,gent MIC,[1]; KpGent strain BAC0800007138,0.5 µg/mL
same,gent MIC,[1]; KpGent strain BIDMC_2A,2 µg/mL
same,gent MIC,[1]; KpGent strain BIDMC_34,32 µg/mL
same,gent MIC,[1]; KpGent strain BIT-10,4 µg/mL
same,gent MIC,[1]; KpGent strain BWH_15,4 µg/mL
same,gent MIC,[1]; KpGent strain IDR1600031102-01-00,>32 µg/mL
same,gent MIC,[1]; KpGent strain IDR1600039511-01-00,0.5 µg/mL
same,gent MIC,[1]; KpGent strain MGH_30,1 µg/mL
same,gent MIC,[1]; KpGent strain MGH_35,>16 µg/mL
same,gent MIC,[1]; KpGent strain MGH_63,>16 µg/mL
same,gent MIC,[1]; KpGent strain RB012,32 µg/mL
same,gent MIC,[1]; KpGent strain RB040,0.5 µg/mL
same,gent MIC,[1]; KpGent strain RB042,2 µg/mL
same,gent MIC,[1]; KpGent strain RB121,1 µg/mL
same,gent MIC,[1]; KpGent strain RB122,128 µg/mL
same,gent MIC,[1]; KpGent strain UCI_7,0.5 µg/mL
same,gent MIC,[1]; KpGent strain UCI_13,0.5 µg/mL
same,gent MIC,[1]; KpGent strain UCI_37,16 µg/mL
same,gent MIC,[1]; KpGent strain UCI_63,4 µg/mL
same,gent MIC,[1]; KpGent strain UCI_67,8 µg/mL
same,Gene ontology enrichment of antibiotic-responsive transcripts,[2],induced the unfolded protein response and quinone binding
same,gent MIC,[3]; E. coli strain AR0055,64 µg/mL
same,gent MIC,[3]; E. coli strain AR0061,32 µg/mL
same,gent MIC,[3]; E. coli strain AR0081,0.5 µg/mL
same,gent MIC,[3]; E. coli strain AR0084,0.5 µg/mL
same,gent MIC,[3]; E. coli strain AR0085,2 µg/mL
same,gent MIC,[3]; E. coli strain BAA2469,64 µg/mL
same,gent MIC,[3]; E. coli strain BAC0800005647,1 µg/mL
same,gent MIC,[3]; E. coli strain IDR1300027657,64 µg/mL
same,gent MIC,[3]; E. coli strain IDR1300034680,1 µg/mL
same,gent MIC,[3]; E. coli strain IDR1600047120,64 µg/mL
same,gent MIC,[3]; E. coli strain MGH_57,0.5 µg/mL
same,gent MIC,[3]; E. coli strain RB001 (deriv_S),1 µg/mL
same,gent MIC,[3]; E. coli strain RB051 (deriv_R),256 µg/mL
same,gent MIC,[3]; E. coli strain RB057 (deriv_R),256 µg/mL
same,gent MIC,[3]; E. coli strain RB075 (deriv_S),0.5 µg/mL
same,gent MIC,[3]; E. coli strain RB765,64 µg/mL
same,gent MIC,"[3]; E. coli, printed on the continuation line of strain RB075, above RB076, strain unclear",1 µg/mL
same,gent MIC,[4]; A. baumannii strain AR0033,32 µg/mL
same,gent MIC,[4]; A. baumannii strain AR0035,16 µg/mL
same,gent MIC,[4]; A. baumannii strain AR0037,>32 µg/mL
same,gent MIC,[4]; A. baumannii strain AR0045,>32 µg/mL
same,gent MIC,[4]; A. baumannii strain AR0052,32 µg/mL
same,gent MIC,[4]; A. baumannii strain AR0056,>32 µg/mL
same,gent MIC,[4]; A. baumannii strain AR0063,4 µg/mL
same,gent MIC,[4]; A. baumannii strain AR0070,>32 µg/mL
same,gent MIC,[4]; A. baumannii strain AR0078,>32 µg/mL
same,gent MIC,[4]; A. baumannii strain AR0101,8 µg/mL
same,gent MIC,[4]; A. baumannii strain AR0102,>32 µg/mL
same,gent MIC,[4]; A. baumannii strain ATCC 17978,≤0.5 µg/mL
same,gent MIC,[4]; A. baumannii strain RB197 (deriv_S),≤0.5 µg/mL
same,gent MIC,[4]; A. baumannii strain RB198,32 µg/mL
same,gent MIC,[4]; A. baumannii strain RB200 (deriv_R),>32 µg/mL
same,gent MIC,[4]; A. baumannii strain RB201,1 µg/mL
same,gent MIC,[4]; A. baumannii strain RB202,>32 µg/mL
same,gent MIC,[4]; A. baumannii strain RB203,4 µg/mL
same,gent MIC,[4]; A. baumannii strain RB204 (deriv_R),>32 µg/mL
same,gent MIC,[4]; A. baumannii strain RB205 (deriv_S),2 µg/mL
same,gent MIC,[4]; A. baumannii strain RB206,>32 µg/mL
same,Gene ontology enrichment of antibiotic-responsive transcripts,[5],induced the unfolded protein response and quinone binding
same,Gene ontology enrichment of antibiotic-responsive transcripts,[6],induced the unfolded protein response and quinone binding
